We go through 33 compounds from patent US10647686B2, “Substituted pyrimidines for preventing or treating cancer and inflammatory diseases” (KOREA RESEARCH INSTITUTE OF CHEMICAL TECHNOLOGY, priority 2016, dated 2020).

For orientation: IC50 means the point on the concentration scale where inhibition reaches its midpoint.

In one assay the target is DRAK2 (Homo sapiens (Human), UniProt O94768). Put plainly: DRAK2 kinase activity inhibition (ADP-Glo, MRCL3 peptide substrate). Type of assay: biochemical. Here is the method:
(§1) DRAK1 and DRAK2 recombinant proteins were purchased from SignalChem Inc. To measure the kinase enzyme activity, the ADP-Glo™ kit provided by Promega Inc. was used. Buffer A used in the kinase reaction was composed of 60 mM Tris-Cl (pH 7.5), 30 mM MgCl2 and 0.15% BSA. Just before the experiment, 1 mM DTT was prepared by diluting 1 M solution and added thereto.
(§2) To measure the DRAK1 and DRAK2 activity, the substrate MRCL3 peptide and ATP were mixed with the enzymes. After an appropriate period of time, the reaction product ADP was quantitatively analyzed.
(§3) The buffer solution A was used to make a 3× substrate solution of 3× concentration so that the final concentrations of ATP and MRCL3 peptides were 1 uM, respectively, and 2.5 μl of each solution was dispensed into Optiplate 384 (perkin-elmer) microplate.
(§4) The final concentrations of ATP and MRCL3 peptide were made to be 1 uM respectively by using buffer A, followed by preparing a 3× substrate solution. The prepared substrate solution was distributed in Optiplate 384 (Perkin-Elmer) microplate (2.5 ul/well). Then, the compounds of Examples 1˜39 and the compounds of Comparative Examples 1-6, whose concentrations were tripled by the final concentration were distributed thereto (2.5 ul/well). Lastly, DRAK1 or DRAK2 enzyme solution, properly diluted by using buffer A, was added thereto (2.5 ul/well). Centrifugation was performed at 800 rpm for 1 minute, and then enzyme reaction was induced at 30° C.
(§5) 2 hours later, the enzyme reaction was terminated. To eliminate residual ATP, ADP-Glo™ reagent contained in ADP-Glo™ was added to each well at the concentration of 7.5 ul, which was the same amount as the sum of the previously added reagents, followed by centrifugation at the same RPM and time as the above. Additional reaction was induced at room temperature for 40 minutes. To convert the ADP produced by the kinase activity to ATP, 15 ul of kinase detection buffer was added to each well, followed by centrifugation. Five minutes after the centrifugation was completed, the luminescence value of the reaction product was determined using Envision, and the enzyme activity inhibition effect of the compound was measured. Then, IC50 of each compound was determined using Prism program.
(§6) The compounds of Example 1 and Example 19 were used as the experimental group and the compound of Comparative Example 6 was used as the control.
To evaluate DRAK2 inhibition activity of the compound represented by formula 1 according to the number of n, the experiment was performed with the compounds of Example 1, Example 19, Example 40, Comparative Example 7 and W Comparative Example 8 by the same manner as described in Experimental Example 1, leading to the measurement of IC50 to DRAK2.
(In general: ADP-Glo first removes unused ATP, then detects ADP through luciferase.)

For the next assay, the target named is DRAK1 (Homo sapiens (Human), UniProt Q9UEE5). Put plainly: DRAK1 kinase activity inhibition (ADP-Glo, MRCL3 peptide substrate). Type of assay: biochemical. The settings on record: Table 3; recombinant enzyme, 1 uM ATP, 1 uM MRCL3 peptide, 30° C., 2 hours. As to the method:
as §1, §2, §3, §4, §5, §6

Setting [1] is: Table 3, recombinant enzyme, 1 uM ATP, 1 uM MRCL3 peptide, 30° C., 2 hours.
Where [2] appears, read: Table 5, Experimental Example 3, according to the number of n.

Each structure is given as a SMILES string.

Sequence of DRAK2 (O94768 whole entry): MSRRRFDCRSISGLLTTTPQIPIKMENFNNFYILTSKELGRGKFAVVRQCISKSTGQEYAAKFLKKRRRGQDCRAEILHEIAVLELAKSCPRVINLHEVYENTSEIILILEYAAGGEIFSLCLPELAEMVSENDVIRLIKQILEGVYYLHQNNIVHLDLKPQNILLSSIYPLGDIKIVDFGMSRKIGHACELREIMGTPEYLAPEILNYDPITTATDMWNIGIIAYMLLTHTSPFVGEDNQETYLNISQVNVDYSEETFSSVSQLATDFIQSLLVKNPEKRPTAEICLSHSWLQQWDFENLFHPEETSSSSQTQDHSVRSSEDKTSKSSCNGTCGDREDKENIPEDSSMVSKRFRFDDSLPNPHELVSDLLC
Sequence of DRAK1 (Q9UEE5 whole entry): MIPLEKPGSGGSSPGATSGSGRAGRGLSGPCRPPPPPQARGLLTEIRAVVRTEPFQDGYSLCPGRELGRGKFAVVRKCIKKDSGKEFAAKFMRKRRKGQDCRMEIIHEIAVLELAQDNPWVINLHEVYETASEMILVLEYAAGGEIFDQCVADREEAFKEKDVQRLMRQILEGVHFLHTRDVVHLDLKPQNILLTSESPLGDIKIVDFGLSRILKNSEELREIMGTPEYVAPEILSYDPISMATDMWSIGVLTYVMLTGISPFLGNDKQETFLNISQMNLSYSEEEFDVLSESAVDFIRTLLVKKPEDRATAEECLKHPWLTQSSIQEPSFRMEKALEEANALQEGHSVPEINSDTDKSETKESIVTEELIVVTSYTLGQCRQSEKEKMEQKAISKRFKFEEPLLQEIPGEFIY

On to `NCCCNc1nc(Nc2ccc(N3CCNCC3)cc2)ncc1Cl` [Example 25, N4-(3-aminopropyl)-5-chloro-N2-(4-(piperazine-1-yl)phenyl)pyrimidine-2,4-diamine], for which the figures for the half-maximal inhibitory concentration (IC50) at DRAK2 (setting [1]) and on DRAK1 were 22 nM and 30 nM, respectively.
On to `Cc1ccc(Nc2ncc(C)c(NCCCN)n2)cc1C` [Example 37, N4-(3-aminopropyl)-N2-(3,4-dimethylphenyl)-5-methylpyrimidine-2,4-diamine], for which the IC50 on DRAK2 (setting [1]) turned out to be 82 nM.
In the case of `CCc1ccc(Nc2ncc(Cl)c(NCCCN)n2)cc1` [Example 11, N4-(3-aminopropyl)-5-chloro-N2-(4-ethylphenyl)pyrimidine-2,4-diamine], the half-maximal inhibitory concentration (IC50) amounted to 44 nM at DRAK2 (setting [1]) and 370 nM at DRAK1.
On to `NCCCNc1nc(Nc2ccc(Cl)cc2)ncc1C(F)(F)F` [Comparative Example 2, N4-(3-aminopropyl)-N2-(4-chlorophenyl)-5-(trifluoromethyl)pyrimidine-2,4-diamine, reference compound], for which the IC50 on DRAK2 (setting [1]) came out at 120 nM.
On to `NCCCNc1nc(Nc2ccc(Oc3ccccc3)cc2)ncc1Cl` [Example 10, N4-(3-aminopropyl)-5-chloro-N2-(4-phenoxyphenyl)pyrimidine-2,4-diamine], for which the IC50 on DRAK2 (setting [1]) was 26 nM; at DRAK1, 180 nM.
The corresponding values for `COc1ccc(Nc2ncc(Cl)c(NCCCN)n2)cc1Cl` [Example 18, N4-(3-aminopropyl)-5-chloro-N2-(3-chloro-4-methoxyphenyl)pyrimidine-2,4-diamine] are 35 nM and 180 nM.
The corresponding values for `CC(C)c1ccc(Nc2ncc(Cl)c(NCCCN)n2)cc1` [Example 3, N4-(3-aminopropyl)-5-chloro-N2-(4-isopropylphenyl)pyrimidine-2,4-diamine] are 11 nM and 240 nM.
The corresponding values for `NCCCNc1nc(Nc2ccc3c(c2)OCCO3)ncc1Cl` [Example 22, N4-(3-aminopropyl)-5-chloro-N2-(2,3-dihydrobenzo[b][1,4]dioxin-6-yl)pyrimidine-2,4-diamine] are 24 nM and 220 nM.
As to `NCCCNc1nc(Nc2ccc(Cl)c(Cl)c2)ncc1Cl` [Example 8, N4-(3-aminopropyl)-5-chloro-N2-(3,4-dichlorophenyl)pyrimidine-2,4-diamine], the half-inhibitory concentration (IC50) was 59 nM at DRAK2 (setting [1]) and 310 nM on DRAK1.
As to `NCCCNc1nc(Nc2ccc(F)cc2)ncc1Cl` [Example 9, N4-(3-aminopropyl)-5-chloro-N2-(4-fluorophenyl)pyrimidine-2,4-diamine], the concentration for half-maximal inhibition (IC50) was determined as 19 nM on DRAK2 (setting [1]) and 290 nM on DRAK1.
Turning to `NCCCCNc1nc(Nc2cc(Cl)cc(Cl)c2)ncc1Cl` [Example 41, N4-(4-n-aminobutyl)-N2-(3,5-dichlorophenyl)-5-chloropyrimidine-2,4-diamine], the IC50 at DRAK2 (setting [1]) stood at 31 nM.
The same measure, in the same setting: the figure for `NCCCNc1nc(Nc2ccc(Cl)cc2)ncc1[N+](=O)[O-]` [Comparative Example 5, N4-(3-aminopropyl)-N2-(4-chlorophenyl)-5-nitropyrimidine-2,4-diamine, reference compound] is 320 nM; for `Cc1cnc(Nc2ccc(Oc3ccccc3)cc2)nc1NCCCN` [Example 33, N4-(3-aminopropyl)-5-methyl-N2-(4-phenoxyphenyl)pyrimidine-2,4-diamine] it is 490 nM; for `NCCCNc1nc(Nc2cc(Cl)cc(Cl)c2)ncc1Cl` [Example 2, N4-(3-aminopropyl)-5-chloro-N2-(3,5-dichlorophenyl)pyrimidine-2,4-diamine] it is 26 nM.
On the same count and under the same terms, in the case of `Cc1cnc(Nc2ccc(Br)c(C(F)(F)F)c2)nc1NCCCN` [Example 32, N4-(3-aminopropyl)-N2-(4-bromo-3-(trifluoromethyl)phenyl)-5-methylpyrimidine-2,4-diamine] it was 1400 nM.
Still for that read-out and setting: in the case of `CCCCCc1ccc(Nc2ncc(Cl)c(NCCCN)n2)cc1` [Example 4, N4-(3-aminopropyl)-5-chloro-N2-(4-pentylphenyl)pyrimidine-2,4-diamine] it was 80 nM.
With `Cc1cnc(Nc2ccc3c(c2)CCCC3)nc1NCCCN` [Example 30, N4-(3-aminopropyl)-5-methyl-N2-(5,6,7,8-tetrahydronaphthalene-2-yl)pyrimidine-2,4-diamine], the IC50 at DRAK2 (setting [1]) worked out at 160 nM.
For the compound `Cc1cnc(Nc2ccc(Cl)c(Cl)c2)nc1NCCCN` [Example 39, N4-(3-aminopropyl)-N2-(3,4-dichlorophenyl)-5-methylpyrimidine-2,4-diamine], the IC50 on DRAK2 (setting [1]) amounted to 75 nM.
Same read-out and setting: the figure for `Cc1cnc(Nc2ccc(F)cc2)nc1NCCCN` [Example 28, N4-(3-aminopropyl)-N2-(4-fluorophenyl)-5-methylpyrimidine-2,4-diamine] is 190 nM; for `Cc1ccc(Nc2ncc(C)c(NCCCN)n2)cc1Cl` [Example 27, N4-(3-aminopropyl)-N2-(3-chloro-4-methylphenyl)-5-methylpyrimidine-2,4-diamine] it is 98 nM.
For the compound `CCCCCCCCc1ccc(Nc2ncc(Cl)c(NCCCN)n2)cc1` [Example 5, N4-(3-aminopropyl)-5-chloro-N2-(4-octylphenyl)pyrimidine-2,4-diamine], the concentration for half-maximal inhibition (IC50) at DRAK2 (setting [1]) was found to be 740 nM.
`NCCCNc1nc(Nc2ccc(Cl)cc2)ncc1F` [Comparative Example 1, N4-(3-aminopropyl)-N2-(4-chlorophenyl)-5-fluoropyrimidine-2,4-diamine, reference compound]: the IC50 at DRAK2 (setting [1]) turned out to be 300 nM.
As for `COc1cnc(Nc2ccc(Cl)cc2)nc1NCCCN` [Comparative Example 3, N4-(3-aminopropyl)-N2-(4-chlorophenyl)-5-methoxypyrimidine-2,4-diamine, reference compound], the IC50 at DRAK2 (setting [1]) is 870 nM.
Still for that read-out and setting: the figure for `Cc1cnc(Nc2ccc(Br)cc2)nc1NCCCN` [Example 35, N4-(3-aminopropyl)-N2-(4-bromophenyl)-5-methylpyrimidine-2,4-diamine] is 89 nM; for `NCCCNc1nc(Nc2ccc(C3CCNCC3)cc2)ncc1Cl` [Example 26, N4-(3-aminopropyl)-5-chloro-N2-(4-(piperidine-4-yl)phenyl)pyrimidine-2,4-diamine] it is 19 nM.
The same measure, in the same setting: the figure for `Cc1cnc(Nc2ccc(F)c(C(F)(F)F)c2)nc1NCCCN` [Example 31, N4-(3-aminopropyl)-N2-(4-fluoro-3-(trifluoromethyl)phenyl)-5-methylpyrimidine-2,4-diamine] is 180 nM.
`NCCNc1nc(Nc2ccc(Cl)cc2)ncc1Cl` [Comparative Example 7, N4-(2-aminoethyl)-5-chloro-N2-(4-chlorophenyl)pyrimidine-2,4-diamine, reference compound] returned an IC50 against DRAK2 (setting [2]) of 110 nM.
In the case of `Cc1cnc(Nc2ccc(F)c(Cl)c2)nc1NCCCN` [Example 38, N4-(3-aminopropyl)-N2-(3-chloro-4-fluorophenyl)-5-methylpyrimidine-2,4-diamine], the IC50 at DRAK2 (setting [1]) stood at 35 nM.
On to `Cc1cnc(Nc2ccc(Cl)cc2)nc1NCCN` [Comparative Example 8, N4-(2-aminoethyl)-N2-(4-chlorophenyl)-5-methylpyrimidine-2,4-diamine, reference compound], for which the IC50 against DRAK2 (setting [2]) was determined as 140 nM.
`NCCCNc1ccnc(Nc2ccc(Cl)cc2)n1` [Comparative Example 4, N4-(3-aminopropyl)-N2-(4-chlorophenyl)pyrimidine-2,4-diamine, reference compound]: the 50% inhibitory concentration (IC50) at DRAK2 (setting [1]) was determined as 1100 nM.
On the same count and under the same terms, in the case of `Cc1cnc(Nc2ccc(S(=O)(=O)c3ccc([N+](=O)[O-])cc3)cc2)nc1NCCCN` [Example 34, N4-(3-aminopropyl)-5-methyl-N2-(4-(4-nitrophenylsulfonyl)phenyl)pyrimidine-2,4-diamine] it was 340 nM; in that of `Cc1cnc(Nc2ccc3c(c2)OCCO3)nc1NCCCN` [Example 36, N4-(3-aminopropyl)-N2-(2,3-dihydrobenzo[b][1,4]dioxin-6-yl)-5-methylpyrimidine-2,4-diamine], 110 nM; in that of `Cc1cnc(Nc2ccc(N3CCNCC3)cc2)nc1NCCCN` [Example 29, N4-(3-aminopropyl)-5-methyl-N2-(4-(piperazine-1-yl)phenyl)pyrimidine-2,4-diamine], 100 nM.
